Laboratory results taken from patent publication US4218453A, “N-Substituted hexahydro-6-canthinones for treating cardio-circulatory, cerebrovascular, and respiratory dysfunction” (priority 1976, dated 1980).

Tests used:
[1] = Acute toxicity, intragastric route, mice (LD50, Lichtfield and Wilcoxon); details: mouse, in vivo, po
Description: The compounds of the invention and vincamine also were administered by intragastric route to Charles River stock mice. The lethal doses for 50% (LD50) were determined graphically according to the method of Lichtfield and Wilcoxon (J. Pharmacol. Exp. Therap. […], 96, 99).

[2] = tested on: Charles River stock mice; assay: Hypobaric anoxia test on mice (survival time); type: in vivo; details: for activity relative to vincamine: comparison on the basis of fractions of LD50
Description: Charles River stock mice of the same sex, weighting about 20±2 g are shared into three lots of 10 animals each. The lots 1 and 2 comprise treated animals, i.e. those having received either a substance to be tested or vincamine, together with solvent, at 1 ml/100 g of body weight. The third lot comprises control animals i.e. those having only received solvent at 1 ml/100 g of body weight.
The compounds examined were administered by intragastric route 15 minutes before the experiment. The doses as applied correspond to 1/5, 1/10, 1/20 of the LD50 for the compounds of the invention and 1/5 of LD50 for vincamine.
The animals were placed in an atmosphere impoverished in oxygen by creating a partial vacuum (190 mm Hg, corresponding to 5.25% oxygen), in about 30 seconds.
The survival time of the mice was measured with a chronometer. Said time is increased by the agents capable of enhancing oxygenation of tissues and more particularly brain oxygenation.
The percentages of survival time increase with respect to the values obtained for the control animals are calculated.

CC[C@]12CCCN3CCc4c(n(c5ccccc45)[C@@](O)(C(=O)OC)C1)[C@@H]32 [Vincamine, vincamine, reference compound]
LD50 ([1]; mice): 970 mg/kg
Variation % (survival time increase vs control) ([2]; Table II, 1st experiment, vincamine 200 mg/kg, LD50/5): 67%
Survival time ([2]; Table II, 1st experiment, vincamine 200 mg/kg, LD50/5, control 39 (± 2)): 65 (± 1) sec.
Variation % (survival time increase vs control) ([2]; Table II, 2nd experiment, vincamine 200 mg/kg or LD50/5): 67%
Survival time ([2]; Table II, 2nd experiment, vincamine 200 mg/kg or LD50/5, control 39 (± 3)): 65 (± 2) sec.
Variation % (survival time increase vs control) ([2]; Table III, 1st experiment, vincamine 200 mg/kg or LD50/5): 67%
Survival time ([2]; Table III, 1st experiment, vincamine 200 mg/kg or LD50/5, control 39 (± 2)): 65 (± 3) sec.
Variation % (survival time increase vs control) ([2]; Table III, 2nd experiment, vincamine 200 mg/kg or LD50/5): 67%
Survival time ([2]; Table III, 2nd experiment, vincamine 200 mg/kg or LD50/5, control 39 (± 1)): 65 (+ 1) sec.
Variation % (survival time increase vs control) ([2]; Table III, 3rd experiment, vincamine 200 mg/kg or LD50/5): 59%
Survival time ([2]; Table III, 3rd experiment, vincamine 200 mg/kg or LD50/5, control 39 (± 1)): 52 (± 1) sec.
Variation % (survival time increase vs control) ([2]; Table IV, vincamine 200 mg/kg or LD50/5): 77%
Survival time ([2]; Table IV, vincamine 200 mg/kg or LD50/5, control 35 (± 3)): 62 (± 4) sec.

CN1CCc2c3n(c4ccccc24)C(=O)CCC31 (stereo not drawn) [OC-330]
LD50 ([1]; mice): 310 mg/kg
Variation % (survival time increase vs control) ([2]; Table II, 1st experiment, 60 mg/kg or LD50/5, intragastric 15 min before): 212%
Survival time ([2]; Table II, 1st experiment, 60 mg/kg or LD50/5, intragastric 15 min before, control 39 (± 2)): 122 (± 4) sec.
Variation % (survival time increase vs control) ([2]; Table II, 2nd experiment, 30 mg/kg or LD50/5 (so in the source)): 71%
Survival time ([2]; Table II, 2nd experiment, 30 mg/kg or LD50/5 (so in the source), control 39 (± 3)): 67 (± 3) sec.
effect compared with vincamine at 1/5 LD50 ([2]; at doses corresponding to 1/10 LD50 for mice (p.o.)): exerts an effect whose intensity is comparable to vincamine at 1/5 LD50
activity relative to vincamine [2]: about two times more active than vincamine

CN1CCc2c3n(c4c(O)cccc24)C(=O)CCC31 (stereo not drawn) [OC-332]
LD50 [1]: 527 mg/kg
Variation % (survival time increase vs control) ([2]; Table IV, 100 mg/kg or LD50/5): 117%
Survival time ([2]; Table IV, 100 mg/kg or LD50/5, control 35 (± 3)): 76 (± 1) sec.
effect relative to vincamine ([2]; at equally toxic dose): about 1.5 times higher

CCN1CCc2c3n(c4ccccc24)C(=O)CCC31 (stereo not drawn) [OC-331, 3-ethyl-1,2,3,3a,4,5-hexahydro-6-canthinone]
LD50 ([1]; mice): 411 mg/kg
Variation % (survival time increase vs control) ([2]; Table III, 1st experiment, 80 mg/kg or LD50/5): 214%
Survival time ([2]; Table III, 1st experiment, 80 mg/kg or LD50/5, control 39 (± 2)): 122 (± 1) sec.
Variation % (survival time increase vs control) ([2]; Table III, 2nd experiment, 40 mg/kg or LD50/10): 105%
Survival time ([2]; Table III, 2nd experiment, 40 mg/kg or LD50/10, control 39 (± 1)): 80 (± 3) sec.
Variation % (survival time increase vs control) ([2]; Table III, 3rd experiment, 20 mg/kg or LD50/20): 75%
Survival time ([2]; Table III, 3rd experiment, 20 mg/kg or LD50/20, control 39 (± 1)): 57 (± 4) sec.
effect compared with vincamine at 1/5 LD50 ([2]; at doses corresponding to 1/20 LD50 for mice (p.o.)): exerts an effect comparable to vincamine at 1/5 LD50
activity relative to vincamine [2]: about four times more active than vincamine
